# From ChEMBL document CHEMBL1139972, “Dihydro-[1H]-quinolin-2-ones as retinoid X receptor (RXR) agonists for potential treatment of dyslipidemia” (Bioorg Med Chem Lett, 2007)
# Calls of active or inactive are those of the source. No cut-off for these calls is given here.
# Legend:
# [1] = Activity at RXR-LXR heterodimer assessed as induction of ABCA1 mRNA; set-up: species or system Homo sapiens
# [2] = biological target: T1, Retinoic acid receptor RXR-alpha (Homo sapiens, UniProt P19793); test: Activity at RXRalpha by GAL4DNA cotransfection assay
# T1 sequence (P19793 whole entry): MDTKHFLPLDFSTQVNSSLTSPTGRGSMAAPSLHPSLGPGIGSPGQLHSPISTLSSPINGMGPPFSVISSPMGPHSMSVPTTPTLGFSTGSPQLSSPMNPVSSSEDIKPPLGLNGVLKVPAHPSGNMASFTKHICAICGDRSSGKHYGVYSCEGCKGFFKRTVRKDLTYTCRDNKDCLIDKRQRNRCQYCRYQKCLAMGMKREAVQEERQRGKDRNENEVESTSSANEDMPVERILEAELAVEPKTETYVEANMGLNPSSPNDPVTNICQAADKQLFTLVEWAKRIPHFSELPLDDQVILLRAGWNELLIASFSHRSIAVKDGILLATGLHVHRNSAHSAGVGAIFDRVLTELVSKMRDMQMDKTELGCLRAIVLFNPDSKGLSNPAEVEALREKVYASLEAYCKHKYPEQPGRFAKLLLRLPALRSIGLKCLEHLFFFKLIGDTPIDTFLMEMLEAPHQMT
# [3] = biological target: T2, Retinoic acid receptor RXR-alpha (Homo sapiens) (UniProt P19793); test: Activity at RXRalpha by GAL4DNA cotransfection assay relative to 5-((3-(1-ethyl-4,4,6-trimethyl-2-oxo-1,2,3,4-tetrahydroquinolin-7-yl)-4-(trifluoromethoxy)phenyl)methylene)thiazolidine-2,4-dione; set-up: concentration or dose not given beside the values
# T2 sequence (whole entry): T1 sequence (P19793 whole entry)
# [4] = species on record: Homo sapiens; test: Activation of RXR-LXR heterodimer assessed as induction of ABCA1 mRNA relative to 5-((3-(1-ethyl-4,4,6-trimethyl-2-oxo-1,2,3,4-tetrahydroquinolin-7-yl)-4-(trifluoromethoxy)phenyl)methylene)thiazolidine-2,4-dione; set-up: concentration or dose not given beside the values
# [5] = Activity at RXR-PPARgamma in human preadipocytes assessed as induction of adipocytes fatty acid binding protein; assay type: cell-based
# [6] = Clearance in rat at 3 mg/kg, po; assay type: ADME, organism-based; set-up: dose 3 mg/kg, route oral; conditions: in vivo
# [7] = Oral bioavailability in rat at 3 mg/kg; assay type: ADME, organism-based; conditions: in vivo
# [8] = Cmax in rat at 3 mg/kg, po; assay type: ADME, organism-based; set-up: dose 3 mg/kg, route oral; conditions: in vivo
# [9] = AUC in rat at 3 mg/kg, po; assay type: ADME, organism-based; set-up: dose 3 mg/kg, route oral; conditions: plasma
# [10] = Half life in rat at 3 mg/kg, po; assay type: ADME, organism-based; set-up: dose 3 mg/kg, route oral; conditions: in vivo
# [11] = Cmax in high cholesterol diet fed Sprague-Dawley rat at 0.3 mg/kg, po after 8 days; assay type: ADME, organism-based; set-up: dose 0.3 mg/kg, route oral; conditions: in vivo
# [12] = Cmax in high cholesterol diet fed Sprague-Dawley rat at 30 mg/kg, po after 8 days; assay type: ADME, organism-based; set-up: dose 30 mg/kg, route oral; conditions: in vivo
# [13] = species on record: Mus musculus; test: Decrease in blood glucose level in db/db mouse after 11 days; assay type: functional, organism-based
# [14] = system: Rattus norvegicus; test: Effect on serum cholesterol level in high cholesterol diet fed Sprague-Dawley rat at 0.3 mg/kg, po after 8 days relative to control; assay type: functional
# [15] = system: Rattus norvegicus; test: Effect on serum cholesterol level in high cholesterol diet fed Sprague-Dawley rat at 1 mg/kg, po after 8 days relative to control; assay type: functional
# [16] = system: Rattus norvegicus; test: Effect on serum cholesterol level in high cholesterol diet fed Sprague-Dawley rat at 3 mg/kg, po after 8 days relative to control; assay type: functional
# [17] = system: Rattus norvegicus; test: Effect on serum cholesterol level in high cholesterol diet fed Sprague-Dawley rat at 10 mg/kg, po after 8 days relative to control; assay type: functional
# [18] = system: Rattus norvegicus; test: Effect on serum cholesterol level in high cholesterol diet fed Sprague-Dawley rat at 30 mg/kg, po after 8 days relative to control; assay type: functional
# [19] = system: Rattus norvegicus; test: Effect on serum HDL-C level in high cholesterol diet fed Sprague-Dawley rat at 0.3 mg/kg, po after 8 days relative to control; assay type: functional
# [20] = system: Rattus norvegicus; test: Effect on serum HDL-C level in high cholesterol diet fed Sprague-Dawley rat at 1 mg/kg, po after 8 days relative to control; assay type: functional
# [21] = system: Rattus norvegicus; test: Effect on serum HDL-C level in high cholesterol diet fed Sprague-Dawley rat at 3 mg/kg, po after 8 days relative to control; assay type: functional
# [22] = system: Rattus norvegicus; test: Effect on serum HDL-C level in high cholesterol diet fed Sprague-Dawley rat at 10 mg/kg, po after 8 days relative to control; assay type: functional
# [23] = system: Rattus norvegicus; test: Effect on serum HDL-C level in high cholesterol diet fed Sprague-Dawley rat at 30 mg/kg, po after 8 days relative to control; assay type: functional
# [24] = system: Rattus norvegicus; test: Effect on serum LDL-C level in high cholesterol diet fed Sprague-Dawley rat at 0.3 mg/kg, po after 8 days relative to control; assay type: functional
# [25] = system: Rattus norvegicus; test: Effect on serum LDL-C level in high cholesterol diet fed Sprague-Dawley rat at 1 mg/kg, po after 8 days relative to control; assay type: functional
# [26] = system: Rattus norvegicus; test: Effect on serum LDL-C level in high cholesterol diet fed Sprague-Dawley rat at 3 mg/kg, po after 8 days relative to control; assay type: functional
# [27] = system: Rattus norvegicus; test: Effect on serum LDL-C level in high cholesterol diet fed Sprague-Dawley rat at 10 mg/kg, po after 8 days relative to control; assay type: functional
# [28] = system: Rattus norvegicus; test: Effect on serum LDL-C level in high cholesterol diet fed Sprague-Dawley rat at 30 mg/kg, po after 8 days relative to control; assay type: functional
# [29] = system: Rattus norvegicus; test: Effect on serum triglyceride level in high cholesterol diet fed Sprague-Dawley rat at 0.3 mg/kg, po after 8 days relative to control; assay type: functional
# [30] = system: Rattus norvegicus; test: Effect on serum triglyceride level in high cholesterol diet fed Sprague-Dawley rat at 1 mg/kg, po after 8 days relative to control; assay type: functional
# [31] = system: Rattus norvegicus; test: Effect on serum triglyceride level in high cholesterol diet fed Sprague-Dawley rat at 3 mg/kg, po after 8 days relative to control; assay type: functional
# [32] = system: Rattus norvegicus; test: Effect on serum triglyceride level in high cholesterol diet fed Sprague-Dawley rat at 10 mg/kg, po after 8 days relative to control; assay type: functional
# [33] = system: Rattus norvegicus; test: Effect on serum triglyceride level in high cholesterol diet fed Sprague-Dawley rat at 30 mg/kg, po after 8 days relative to control; assay type: functional
compound,measurement,setting,value
CCN1C(=O)CC(C)(C)c2cc(C)c(-c3cc(CC(C)C(=O)O)ccc3OC(F)(F)F)cc21 (stereo unspecified),EC50,[1],> 3000 nM
same,EC50,[2],760 nM
same,Activity,[3],85%
COc1ccc(C2CC2C(=O)O)cc1-c1cc2c(cc1C)C(C)(C)CC(=O)N2C(C)C (racemic),EC50,[1],1520 nM
same,EC50,[2],208 nM
same,Activity,[3],50%
CCN1C(=O)CC(C)(C)c2cc(C)c(-c3cc(CCC(=O)O)ccc3OC(F)(F)F)cc21,EC50,[1],47 nM
same,Activity,[4],70%
same,EC50,[2],7.2 nM
same,Activity,[3],79%
same,EC50,[5],1200 nM
same,CL/F,[6],4.6 mL/min/kg
same,bioavailability,[7],71%
same,Cmax,[8],678 ng/mL
same,AUC,[9],6130 ng·h/mL
same,half-life,[10],24 h
same,Cmax,[11],58.5 ng/mL
same,Cmax,[12],7510 ng/mL
same,Activity,[13],inactive
same,Activity,[14],343 mg/dL
same,Activity,[15],313 mg/dL
same,Activity,[16],302 mg/dL
same,Activity,[17],228 mg/dL
same,Activity,[18],252 mg/dL
same,Activity,[19],29 mg/dL
same,Activity,[20],30 mg/dL
same,Activity,[21],37 mg/dL
same,Activity,[22],39 mg/dL
same,Activity,[23],42 mg/dL
same,Activity,[24],53 mg/dL
same,Activity,[25],46 mg/dL
same,Activity,[26],46 mg/dL
same,Activity,[27],35 mg/dL
same,Activity,[28],38 mg/dL
same,Activity,[29],320 mg/dL
same,Activity,[30],279 mg/dL
same,Activity,[31],253 mg/dL
same,Activity,[32],270 mg/dL
same,Activity,[33],322 mg/dL
Cc1cc2c(cc1-c1cc(CCC(=O)O)ccc1OC(F)(F)F)N(C)C(=O)CC2(C)C,EC50,[1],53 nM
same,EC50,[2],45.9 nM
same,Activity,[3],91%
CCN1C(=O)CC(C)(C)c2cc(C)c(-c3cc(/C=C\C(=O)O)ccc3OC(F)(F)F)cc21,EC50,[1],886 nM
same,Activity,[4],75%
same,EC50,[2],39.1 nM
same,Activity,[3],97%
CCN1C(=O)CC(C)(C)c2cc(C)c(-c3cc(CCCC(=O)O)ccc3OC(F)(F)F)cc21,EC50,[1],> 3000 nM
same,EC50,[2],527 nM
same,Activity,[3],70%
Cc1cc2c(cc1-c1cc([C@H]3C[C@@H]3C(=O)O)ccc1OC(F)(F)F)N(C(C)C)C(=O)CC2(C)C,EC50,[1],> 3000 nM
same,EC50,[2],198 nM
same,Activity,[3],50%
CCN1C(=O)CC(C)(C)c2cc(C)c(-c3cc(C(C)CC(=O)O)ccc3OC(F)(F)F)cc21 (stereo unspecified),EC50,[1],347 nM
same,Activity,[4],160%
same,EC50,[2],37.7 nM
same,Activity,[3],99%
CCN1C(=O)CC(C)(C)c2cc(C)c(-c3cc(/C(C)=C/C(=O)O)ccc3OC(F)(F)F)cc21,EC50,[2],> 10000 nM
CCN1C(=O)CC(C)(C)c2cc(C)c(-c3cc(/C=C/C(=O)O)ccc3OC(F)(F)F)cc21,EC50,[1],3.6 nM
same,Activity,[4],81%
same,Activity,[3],115%
Cc1cc2c(cc1-c1cc([C@@H]3C[C@H]3C(=O)O)ccc1OC(F)(F)F)N(C(C)C)C(=O)CC2(C)C,EC50,[1],> 3000 nM
same,EC50,[2],10 nM
same,Activity,[3],70%
same,EC50,[5],266 nM
CCN1C(=O)CC(C)(C)c2cc(C)c(-c3cc(CCC(=O)O)ccc3OCC(F)(F)F)cc21,EC50,[1],> 3000 nM
same,EC50,[2],70.2 nM
same,Activity,[3],90%
same,EC50,[5],> 3000 nM
CCN1C(=O)CC(C)(C)c2cc(C)c(-c3cc(/C=C(\C)C(=O)O)ccc3OC(F)(F)F)cc21,EC50,[1],100 nM
same,Activity,[4],49%
same,EC50,[2],27.9 nM
same,Activity,[3],81%
CCN1C(=O)CC(C)(C)c2cc(C)c(-c3cc([C@@H]4C[C@H]4C(=O)O)ccc3OC(F)(F)F)cc21,EC50,[1],> 3000 nM
same,EC50,[2],2.3 nM
same,Activity,[3],85%
same,EC50,[5],581 nM
